{
  "source": "patent US20100041756A1",
  "about": "“METHOD OF MODULATING B CELL FUNCTIONING” (priority 2004, published 2010)",
  "key": {"[1]": {"tested_on": "anti-type II collagen IgG1", "test": "Inhibition of anti-type II collagen antibody production in vivo (Example 5)", "set-up": "species or system mouse", "experimental": "Female DBA/1 mice (10 weeks of age) were immunised intraperitoneally on day 1 with 100 μg bovine type II collagen, dissolved in 0.05M Tris/0.2M NaCl, pH 7.4). Tranilast was dissolved in 1% sodium bicarbonate (10 mg/ml) by heating for 1 h at 70° C. Upon cooling, an emulsion was formed. Tranilast was administered intraperitoneally for three weeks (starting on day 1) at a dose of 400 mg/kg, every 2-3 days. Controls received vehicle alone. There were six mice per group.\nOn day 28 mice were bled and serum levels of anti-type II collagen IgG1 and IgG2a were measured by ELISA, as follows:\n1. Polystyrene microtitre plates (Immulon 2, Dynatech Laboratories) were coated with DEAE-purified bovine type II collagen, dissolved in 0.2M NaCl/0.05M Tris, pH 7.4 (5 μg/ml), overnight at 4° C. 2. The plates were washed in phosphate-buffered saline (PBS), then blocked with BSA in PBS (2% w/v) for 1 h at room temperature. 3. After washing in PBS, containing Tween 20 (0.05% v/v), the sera were serially diluted in PBS/Tween, added to the plates and incubated for 2 h at room temperature. 4. After washing in PBS/Tween, bound IgG was detected by incubating goat anti-mouse IgG1 or anti-mouse IgG2a-HRP conjugate ( 1/1000) for 2 h at room temperature. 5. Develop colour reaction using TMB substrate. Stop reaction with 4.5NH2SO4 6. The plates were read at 450 nm on a microtitre plate reader."}, "[2]": {"tested_on": "B cells activated with LPS", "test": "B cell proliferation, BrdU uptake detected by FACS analysis (Example 2)", "format": "cell-based", "details": "Mus musculus, LPS-induced, 100 μg/ml tranilast (FIG. 3), read-out: maximum inhibition of proliferation", "experimental": "FIG. 3 is a graphical representation of the inhibition of B cell proliferation by tranilast. B-cells were activated in vitro with LPS, and 1-100 μg/ml tranilast. Proliferation was assessed using BrdU uptake, detected by FACs analysis. LPS induced proliferation in 72% of cells.\nB cells were prepared for mouse spleen using rat anti-mouse IgM microbeads and the MACS system.\n3 spleens were removed from male DBA/1 mice aged 8-12 weeks. A single cell suspension was prepared by cell-sieve.\nCells were cultured at 1×10^6 cells/ml in 2 ml complete RPMI with glutamine (10% FCS, 1% Pen/Strep, 50 μM 2-Mercaptoethanol, 1 mM Na-Pyruvate) for 48 h in the presence of LPS (20 μg/ml), and 100-25 μg/ml tranilast, or vehicle (DMSO).\n20 μM BrdU (Sigma) was added to each well, and incubated overnight.\nFACS analysis of staining was performed on the BD LSR Flow Cytometer."}, "[3]": {"tested_on": "T cells stimulated with anti-CD3/anti-CD28", "test": "Purified T cell proliferation, anti-CD3/anti-CD28, 3H-thymidine incorporation (Example 4)", "format": "cell-based, mouse", "experimental": "FIG. 10 is a graphical representation depicting that 3,4-DAA and 3-HAA inhibit B and T cell proliferation in vitro. Purified B and T cells were stimulated for 72 h with anti-CD40 (a), or anti-CD3/anti-CD28 (b) respectively, in the presence of varying doses of 3,4-DAA, or 3-HAA.\nA single cell suspension was prepared from spleen by mincing through a cell strainer, and erythrocytes were lysed using an ammonium chloride solution (Sigma, St Louis, Mo., USA). B cells were positively enriched by using anti-IgM MACS microbeads, and T cells were positively enriched using anti-CD4 MACS microbeads and the MACS system, according to the manufacturer's guidelines (Miltenyi Biotec, Bergisch Gladbach, Germany). Purity was assessed by flow cytometric analysis (B cell>90% CD19+, T cell>90% CD4+). Cells were cultured at 5×10^5 cells/ml in 200 μl complete RPMI, as above, in a flat bottom 96-well plate and cultured for 72 h. B cells were stimulated with anti-CD40 monoclonal antibody (10 μg/ml; BD), and T cells were stimulated with 5 μg/ml plate-bound anti-CD3 (BD), 5 μg/ml soluble anti-CD28 (BD). Tranilast, 3-HAA, or vehicle (DMSO) were incubated at concentrations stated with the cultures. 48 hours after stimulation, 100 μl culture medium was collected, and cells were pulsed with 1 μCi ^3H thymidine per well for 18 h. Cells were then harvested and plates assessed for incorporation. Each assay was performed on a minimum of 3 occasions. Data shown is of one representative experiment, and is expressed as mean+/−SD of triplicate in culture. IFN-γ, IL-10 and IL-5 levels was assessed in the culture medium by ELISA, as above."}, "[4]": {"details": "individual mice, day 28, 400 mg/kg i.p. every 2-3 days for three weeks"}},
  "note": "“And” between values parts separate entries of the source, which are not always exact repeats. Equal values may be shown once.",
  "data": [
    {"smiles": "COc1ccc(/C=C/C(=O)Nc2ccccc2C(=O)O)cc1OC", "note": "[Tranilast, 2-[[3-(3,4-dimethoxyphenyl)-1-oxo-2-propenyl]amino]benzoic acid]", "values": [
      {"measurement": "Levels of anti-type II collagen IgG1", "setting": "[1]; group comparison, P=0.03, Mann Whitney test", "result": "significantly higher in the control group versus the Tranilast treated group"},
      {"measurement": "OD450 (dilution 1/100), anti-type II collagen IgG1", "setting": "[1]; [4]", "result": "0.07 and 0.06 (2×) and 0.31 and 0.08 (2×)"},
      {"measurement": "Titre (reciprocal), anti-type II collagen IgG1", "setting": "[1]; [4]", "result": "<50 (4×) and <1/50 and 150"},
      {"measurement": "inhibition at 100 µg/mL", "setting": "[2]", "result": 75, "unit": "%"},
      {"measurement": "IC50", "setting": "[3]; Mus musculus, T-cell, anti-CD3/CD28, 72 h, 3H-thymidine (FIG. 10B), read-out: IC50 for inhibition of T cell proliferation", "result": 28, "unit": "µM"},
      {"measurement": "T cell proliferation", "setting": "[3]; anti-CD3/CD28, varying doses (FIG. 10B)", "result": "dose-dependently inhibited"}
    ]}
  ]
}
